From patent US20110251285A1, “COMBINATIONS OF PRESERVATIVES FOR OPHTHALMIC COMPOSITIONS” (ALLERGAN, INC., priority 2010, published 2011)

Test system: S. aureus, P. aeruginosa, c. albicans, E. coli and/or A. niger
Assay: abbreviated preservative efficacy test against USP, EP-A and EP-B criteria
Type: cell-based
Conditions: 20 ppm BAK alone
Protocol: Each of these formulations is tested by performing an abbreviated preservative efficacy test using test organisms S. aureus, P. aeruginosa, c. albicans, E. coli and/or A. niger. The formulations are tested against United States Pharmacopeia Preservative Efficacy Test (USP), European Pharmacopeia Efficacy Test-A (EP-A) and European Pharmacopeia Efficacy Test-B (EP-B) criteria as indicated. Ten (10) ml of each formulation is challenged with approximately 10^5 cfu/ml of test organism. At appropriate time intervals, the amount of bacterial and fungal survivors are assayed using Dey Engley broth (DE) as the neutralizer media. DE, along with filtration, is sufficient at neutralizing the antimicrobial agents in the compositions. One (1) ml of each sample is diluted into nine (9) ml of DE. One (1) ml of the 1:10 dilution is filtered through a 0.45 µm filter and washed with 100 ml of a saline/polysorbate 80 solution. After washing the filtrate a second time with 100 ml of saline/polysorbate 80 solution, the filtrate is placed onto a TSA plate for bacteria and SAB for fungi.

Substance: benzalkonium chloride [BAK]
- Ph Eur-B & A criteria: failed
